For data set [1], the target named is p45MEK (GST-MEK) (Homo sapiens, UniProt Q02750). In words: Cascade assay for inhibitors of the MAP kinase pathway (in vitro). The format is biochemical. Here is the method: Incorporation of ^32P into myelin basic protein (MBP) was assayed in the presence of a glutathione S-transferase fusion protein containing p44MAP kinase (GST-MAPK) and a glutathione S-transferase fusion protein containing p45MEK (GST-MEK). The assay solution contained 20 mM HEPES, pH 7.4, 10 mM MgCl2, 1 mM MnCl2, 1 mM EGTA, 50 μM [γ-^32P]ATP, 10 μg GST-MEK, 0.5 μg GST-MAPK and 40 μg MBP in a final volume of 100 μL. […] Compounds were assessed at 10 μM for ability to inhibit incorporation of ^32P.
To ascertain whether compounds were inhibiting GST-MEK or GST MAPK, two additional protocols were employed. In the first protocol, compounds were added to tubes containing GST-MEK, followed by addition of GST-MAPK, MBP and [γ-^32P]ATP. In the second protocol, compounds were added to tubes containing both GST-MEK and GST-MAPK, followed by MBP and [γ-^32P]ATP.

In data set [2] the test system is activation of MAP kinase in whole cells. The experiment in a line: Whole cell MAP kinase assay (in vivo, cell culture). The format is cell-based. As for the experimental part: To determine if compounds were able to block activation of MAP kinase in whole cells, the following protocol was used: Cells were plated in multi-well plates and grown to confluence. Cells were then serum-deprived overnight. Cells were exposed to the desired concentrations of compound or vehicle (DMSO) for 30 minutes, followed by addition of a growth factor, eg, PDGF (100 ng/mL). After a 5-minute treatment with the growth factor, cells were washed with PBS, then lysed in a buffer consisting of 70 mM NaCl, 10 mM HEPES (pH 7.4), 50 mM glycerol phosphate, and 1% Triton X-100. Lysates were clarified by centrifugation at 13,000×g for 10 minutes. Five micrograms of the resulting supernatants were incubated with 10 μg microtubule associated protein-2 (Map2) for 15 minutes at 30° C. in a final volume of 25 μL containing 50 mM Tris (pH 7.4), 10 mM MgCl2, 2 mM EGTA and 30 μM [γ-^32P]ATP. Reactions were terminated by addition of Laemmli sample buffer. Phosphorylated Map2 was resolved on 7.5% acrylamide gels and incorporated radioactivity determined by autoradiography and subsequent excision of the bands followed by scintillation counting.

Data set [3] relates to murine colon tumor, C26/clone 10. The experiment in a line: Murine colon tumor C26/clone 10 implanted subcutaneously in mice. As to conditions: for Change in Body Weight / Non-Specific Deaths: Days 1 through 14. The format is in vivo, Male CD2F1 mice. As for the experimental part:
Male CD2F1 mice (NCI: Charles River, Kingston) were implanted subcutaneously with tumor fragments (approximately 30 mg) in the region of the right axilla on Day 0. […] The vehicle for the test compound, and for control animals, was 10% EtOH/10% Cremophor-EL (Sigma)/80% H2O, pH 5.0. Tumor volumes were recorded three times per week by measuring the length and width of the individual tumors and calculating mass in milligrams according to the formula (a×b^2)/2, where a and b are the length and width of the tumor. Percent treated/control (T/C) was calculated based on the ratio of the median tumor volume of the treated tumors compared with the median tumor volume of control animals on specified measurement days.

The values below come from patent publication US7169816B2, “4-bromo or 4-iodo phenylamino benzhydroxamic acid derivatives and their use as MEK inhibitors” (Warner-Lambert Company, priority 1997, dated 2007).

Read-outs that look alike come from different tables or passages of the source. Where only a bound is given, the exact number is not on record here.

In general, IC50 refers to the concentration needed to halve the response being measured. As for “2-(4-bromo-2-methyl-phenylamino)-4-fluoro-N-hydroxy-benzamide [Example 3]”, the IC50 is 0.072 µM in data set [1] and 3 µM in data set [2] (cell culture).
Taken in the same sequence, the figures for “4-Fluoro-N-hydroxy-2-(4-cluoro-2-methyl-phenylamino)-benzamide [Example 11]” were 0.334 µM and 0.5 µM.
On to “5-Bromo-N-cyclopropylmethoxy-3,4-difluoro-2-(4-iodo-2-methyl-phenylamino) [Example 58]”, for which the half-inhibitory concentration (IC50) turned out to be 0.018 µM in data set [1] and 0.014 µM in data set [2] (cell culture).
The melting point is the temperature of the solid-liquid transition. For `Cc1cc(I)ccc1Nc1cc(F)ccc1C(=O)NO` [Example 1, 4-Fluoro-N-hydroxy-2-(4-iodo-2-methyl-phenylamino)-benzamide], the melting point was in the range of 61 to 75 °C. In data set [1], this compound returned an IC50 of 0.007 µM.
Compound `Cc1cc(I)ccc1Nc1c(C(=O)NO)cc(Br)c(F)c1F` [Example 2, 5-Bromo-3,4-difluoro-N-hydroxy-2-(4-iodo-2-methyl-phenylamino)-benzamide] had a melting point of 80 to 90 °C. The same compound had an IC50 in data set [1] of 0.003 µM.
As for `O=C(NO)c1ccc([N+](=O)[O-])cc1Nc1ccc(I)cc1Cl` [Example 82, 2-(2-Chloro-4-iodo-phenylamino)-N-hydroxy-4-nitro-benzamide], the IC50 in data set [1] turned out to be 0.003 µM; in data set [2], 0.04 µM.
Take `Cc1cc(I)ccc1Nc1c(C(=O)NO)ccc(F)c1F` [Example 84, 3,4-Difluoro-N-hydroxy-2-(4-iodo-2-methyl-phenylamino)-benzamide]: the results for the IC50 in data set [1] and in data set [2] were 0.001 µM and 0.005 µM, respectively.
As to `O=C(NOCC1CCC1)c1ccc(F)c(F)c1Nc1ccc(I)cc1Cl` [Example 89, 3,4-Difluoro-2-(2-chloro-4-iodo-phenylamino)-N-cyclobutylmethoxy-benzamide], the figures for the IC50 in data set [1] and in data set [2] were 0.005 µM and 0.3 µM, respectively.
Consider `O=C(NO)c1cc(Br)c(F)c(F)c1Nc1ccc(I)cc1Cl` [Example 93, 5-Bromo-2-(2-chloro-4-iodo-phenylamino)-3,4-difluoro-N-hydroxy-benzamide], for which the results for the IC50 in data set [1] and in data set [2] were 0.01 µM and 0.05 µM, respectively.
The % Inhibition is the change of the read-out against control, counted positive when it falls. Turning to `O=C(NOCC1CC1)c1ccc(F)c(F)c1Nc1ccc(I)cc1Cl` [Example 95, 3,4-Difluoro-2-(2-chloro-4-iodo-phenylamino)-N-cyclopropylmethoxy-benzamide], the “% Inhibition” value in data set [3] (IP, 48 mg/kg/day, Day 15) was determined as 59%; in data set [3] (IP, 77 mg/kg/day, Day 15), 98%; in data set [3] (IP, 124 mg/kg/day, Day 15) it was 96%; in data set [3] (IP, 200 mg/kg/day, Day 15), 100%; in data set [3] (PO, 71 mg/kg/day, Day 17), 64%; in data set [3] (PO, 115 mg/kg/day, Day 17), 79%. Moreover, the “% Inhibition” value in data set [3] (PO, 186 mg/kg/day, Day 17) is recorded as 75%; in data set [3] (PO, 300 mg/kg/day, Day 17), 83%. The “Change in Body Weight” value is “+3 grams” in data set [3] (IP, 48 mg/kg/day); “+2 grams” in data set [3] (IP, 77 mg/kg/day); “+3 grams” in data set [3] (IP, 124 mg/kg/day); “+2 grams” in data set [3] (IP, 200 mg/kg/day); “+2 grams” in data set [3] (PO, 71 mg/kg/day); “+2 grams” in data set [3] (PO, 115 mg/kg/day). The “Change in Body Weight” value was “+2 grams” in data set [3] (PO, 186 mg/kg/day) and “+2 grams” in data set [3] (PO, 300 mg/kg/day). In addition, the “Non-Specific Deaths” value in data set [3] (IP, 48 mg/kg/day) is 0/6; in data set [3] (IP, 77 mg/kg/day), 2/5; in data set [3] (IP, 124 mg/kg/day), 1/6; in data set [3] (IP, 200 mg/kg/day) it was 1/6; in data set [3] (PO, 71 mg/kg/day), 0/6; in data set [3] (PO, 115 mg/kg/day) it was 1/6. For the same compound, the “Non-Specific Deaths” value in data set [3] (PO, 186 mg/kg/day) was 0/6; in data set [3] (PO, 300 mg/kg/day), 0/6.
With `Cc1cc(I)ccc1Nc1c(C(=O)NOCC(C)C)cc(Br)c(F)c1F` [Example 99, 5-Bromo-3,4-difluoro-2-(4-iodo-2-methyl-phenylamino)-N-isobutoxy-benzamide], the concentration for half-maximal inhibition (IC50) in data set [1] was 0.018 µM; in data set [2], 0.5 µM.
Turning to `Cc1cc(I)ccc1Nc1c(C(=O)NOCC2CCCCC2)cc(Br)c(F)c1F` [Example 100, 5-Bromo-N-cyclohexylmethoxy-3,4-difluoro-2-(4-iodo-2-methyl-phenylamino)-benzamide], the figures for the concentration for half-maximal inhibition (IC50) in data set [1] and in data set [2] were 0.026 µM and greater than 1 µM, respectively.
As for `Cc1cc(I)ccc1Nc1c(C(=O)NOCC2CCCC2)cc(Br)c(F)c1F` [Example 101, 5-Bromo-N-cyclopentylmethoxy-3,4-difluoro-2-(4-iodo-2-methyl-phenylamino)-benzamide], the IC50 was 0.008 µM in data set [1] and greater than 1 µM in data set [2].
For `Cc1cc(I)ccc1Nc1c(C(=O)NOCC2CCC2)cc(Br)c(F)c1F` [Example 102, 5-Bromo-N-cyclobutylmethoxy-3,4-difluoro-2-(4-iodo-2-methyl-phenylamino)-benzamide], the IC50 in data set [1] was found to be 0.004 µM; in data set [2], 0.2 µM.
